Laboratory results: patent US8232407B2, “Nitrogenous heterocyclic compounds with insecticidal activity, and the preparation and use thereof” (East China University of Science and Technology, priority 2008, dated 2012)

Columns and labels:
Format in all cases: in vivo
Aphis craccivoral = experiment: Insecticidal activities to aphids, immersion method; settings: for Aphis craccivoral Mortality (%) 500 ppm: in vivo
Summary of the method: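 Immersion assay: compound diluted from 10 g/L DMF stock to 500 ppm in 0.2 mL/L Triton X-100, sprout-feeding wingless adults dipped 5 s. Kept at 23° C, three repeats; 24 h mortality calculated relative to surviving Triton-treated controls.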

Nilaparvata lugens = experiment: Insecticidal activities to plant hopper, spraying method; settings: for Nilaparvata lugens Mortality (%) 500 ppm: in vivo
Summary of the method: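 Spray test: acetone solutions of 500 down to 0.79 ppm, 2 ml per tumbler holding 10 planthoppers introduced 6 h earlier, triplicate, aqueous acetone as control. Mortality at 24 h calculated from survivors relative to control.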

[1] = system: Pseudaletia separate Walker; experiment: Insecticidal activities to armyworm, leaf dipping and feeding
Summary of the method: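 Armyworms (10 per tumbler, 3 replicates) ate fresh maize leaves that had been immersed for 3 seconds in compound solutions of 1.57-500 ppm in acetone, or in aqueous acetone for controls. Kills were scored at 24 h, and mortality was calculated relative to survivors in the control group.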

Plutella xylostella = experiment: Insecticidal activities to diamondback moth, feeding dipped leaves; settings: for Plutella xylostella Mortality (%) 500 ppm: in vivo
Summary of the method: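 Mortality was scored 24 h after larvae of Plutella xylostella (10 per treatment, 3 repeats) fed on cabbage leaves immersed 3 s in test solution and dried at room temperature. It was computed relative to survivors in a water-treated control.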

Row | Compound | Aphis craccivoral Mortality (%) 500 ppm (Aphis craccivoral) [%] | Nilaparvata lugens Mortality (%) 500 ppm (Nilaparvata lugens) [%] | Pseudaletia separate Walker Mortality (%) 500 ppm ([1]; in vivo) [%] | Plutella xylostella Mortality (%) 500 ppm (Plutella xylostella) [%] | mortality at 500 ppm (Aphis craccivoral; Aphis, 500 ppm, immersion method, read-out: Aphis craccivoral Mortality (%) 500 ppm) [%] | mortality at 500 ppm (Nilaparvata lugens; Nilaparvata lugens, 500 ppm, spraying method, counted after 24 hours, read-out: Nilaparvata lugens Mortality (%) 500 ppm) [%] | Pseudaletia separate Walker Mortality (%) 500 ppm ([1]; 500 ppm, leaf dipping and feeding, counted after 24 hours) [%] | mortality at 500 ppm (Plutella xylostella; Plutella xylostella, 500 ppm, feeding dipped leaves, counted after 24 hours, read-out: Plutella xylostella Mortality (%) 500 ppm) [%]
1 | C[N+]1=C(C(=Cc2ccc(Br)o2)[N+](=O)[O-])N(Cc2ccc(Cl)nc2)CC1.[Cl-] [Compound 248] | 100 | 100 | 100 | 100 |  |  |  | 
2 | O=[N+]([O-])C(=Cc1ccc(F)nc1)C1=NCCN1Cc1ccc(Cl)nc1 [Compound 41] | 89 | 87 | 100 | 100 |  |  |  | 
3 | Cn1cccc1C=C(C1=NCCN1Cc1ccc(Cl)nc1)[N+](=O)[O-] [Compound 32] | 100 | 100 | 100 | 100 |  |  |  | 
4 | C[N+]1=C(C(=Cc2ccc(Cl)o2)[N+](=O)[O-])N(Cc2cnc(Cl)s2)CC1.[Cl-] [Compound 278] | 100 | 100 | 100 | 100 |  |  |  | 
5 | O=[N+]([O-])C(=Cc1cc(Cl)c(Cl)o1)C1=NCCCN1Cc1ccc(Cl)nc1 [Compound 53] | 100 | 100 | 100 | 100 |  |  |  | 
6 | O=[N+]([O-])/C(=C/c1ccco1)C1=NCCN1Cc1ccc(Cl)nc1 [Compound 1, 2-chloro-5-((2-(2-(furan-2-yl)-1-nitrovinyl)-4,5-dihydroimidazol-1-yl)-methyl) pyridine] |  |  |  |  | 100 | 100 | 100 | 100
7 | C[N+]1=C(C(=Cc2cc(Br)c(Br)o2)[N+](=O)[O-])N(Cc2ccc(Cl)nc2)CC1.[Cl-] [Compound 253] | 100 | 100 | 100 | 100 |  |  |  | 
